Test results as given in patent publication US20240269106A1, “SMALL MOLECULE MODULATOR TARGETING A RARE HISTONE MODIFICATION REGULATING ADIPOGENESIS AND PHARMACEUTICAL FORMULATION THEREOF” (COUNCIL OF SCIENTIFIC AND INDUSTRIAL RESEARCH AN INDIAN …, priority 2021, published 2024).

Tests used:
[1] = test system: 3T3L1 cells; assay: Adipogenesis of 3T3L1 cell line, Oil Red-O staining; format: cell-based
Experimental: The preadipocyte cell line 3T3L1 was seeded in complete DMEM (supplemented with 10% FBS). Once the cells reached almost full confluent state, they were treated with differentiation media (2 μg/mL Insulin, 0.5 mM IBMX and 1 μM Dexamethasone) for 2 days. After the differentiation induction, the cells were kept in maintenance media (2 μg/mL Insulin) for another 4-6 days with media change given every 2 days. The completion of adipogenesis was confirmed by the observation of lipid droplet accumulation in most of the cells. On the 6th day post induction of differentiation the cells were fixed with 3.7% formaldehyde solution followed by staining with Oil Red-O dye (prepared in 60% isopropanol) for 1 hour at room temperature. The incorporated dye was extracted using isopropanol and absorbance values were determined spectrophotometrically at 510 nm to estimate total amount of lipid accumulation under different experimental conditions.

[2] = test system: C57BL/6J mice maintained on high fat diet; assay: Standardization of dosage and administration mode, intraperitoneal, high fat diet mice; format: in vivo
Experimental: Male C57BL/6J mice (8 weeks old) bred in house were obtained and acclimatized for 1 week prior to experiments. Mice were maintained on a 12-hour light/dark cycle at 22+/−3° C. and a relative humidity of 55% and given ad libitum access to food and water. The age-matched C57BL/6J mice were maintained on a standard laboratory chow diet or high fat diet (60 kcal % fat) and water. Two groups were intraperitoneally injected with compound x at two different doses (20 mg/Kg bw and 50 mg/kg bw) twice every week. A third group was injected with equivalent volume of DMSO (for 50 mg/kg bw) as vehicle control. Body weight and food intake was measured twice every week.

[3] = test system: genetically obese db/db mice; assay: Liver and adipose tissue of genetically obese db/db mice; format: in vivo
Description: After the treatment of the mice with compound of Formula I for one month, the mice were sacrificed and their liver and epididymal fat pads were harvested. The organs were individually weighed and then processed for morphology study by hematoxylin and eosin staining.
Average weights of liver (i) and adipose tissue (ii) of the mice of the three different groups are represented by bar graphs (FIG. 11); n=4 in each group:one-way ANOVA with Dunnett's multiple comparison; * P<0.05, ** P<0.01, *** P<0.001, ns: not significant. Representative images of morphology of adipose tissue (iii) and liver (iv) from the mice of the three groups, as studied by hematoxylin and eosin staining.

## COc1ccc(C(=O)C2=C3OC(C)(C)[C@@H](CC=C(C)C)C[C@@]34C[C@@H](CC=C(C)C)C(C)(C)[C@@](CC=C(C)C)(C2=O)C4=O)cc1OC [Compound X]
[1]
  adipogenesis, Oil-Red O staining: inhibition of adipogenesis
[2]; 20 mg/kg bw intraperitoneal twice every week
  weight gain: not sufficient for arresting weight gain
[2]; 50 mg/kg bw intraperitoneal twice every week, DMSO vehicle gave almost similar arrest
  body weight: did have an attenuating effect
[3]; between db/db vehicle and db+/-
  liver and epididymal fat pad weights: intermediate weights
[3]; one month treatment
  symptoms of liver steatosis and adipose tissue hypertrophy: significantly reduced
